# Measurements: patent publication US20130310306A1, “HUMAN LACTOFERRIN DERIVED PEPTIDES AND THEIR USE” (PharmaSurgics In Sweden AB, priority 2011, published 2013)
# Entries after “also recorded” stand apart in the source; their conditions may differ.
# Key:
# [1] = system: S. aureus (CCUG 1800); experiment: Minimal microbicidal concentration (MMC99) assay, S. aureus; format: cell-based
# Protocol: Antimicrobial Activity was Measured as Bactericidal Effect on S. Aureus Using Minimal Microbicidal Concentration, MMC99, Assay)
# S. aureus (#1800; CCUG, Gothenburg, Sweden) cultured on blood-agar plates [Columbia agar (Oxoid, Basingstoke, UK) supplemented with 5% defibrinated horse blood (National Veterinary Institute (SVA), Uppsala, Sweden)] were transferred to brain heart infusion broth (3.7% BHI; Difco, BD Diagnostics, Franklin Lakes, N.J., USA) and incubated in a shaker at 250 rpm+37° C. over night. The culture was thereafter be diluted 1:10 in fresh BHI broth and incubated for additional two hours to reach log-phase growth. The bacteria were pelleted and suspended in 1% BHI medium (BHI broth diluted 100 times in ultra-pure water) to a concentration of 10^7 bacteria/ml as estimated by measuring optical density at 600 nm. Peptides were serially diluted by two-fold steps from 160 μM to 1.25 μM in 1% BHI medium. The peptides (100 μl) were thereafter incubated with bacteria (5 μl á 10^7 bact./ml) for 2 hours at +37° C. Drops (5 μl) of the suspension were placed on blood agar plates. The blood agar plates were incubated over night at +37° C. The MMC99 values, i.e. the lowest peptide concentration needed to achieve a 99% reduction of viable bacteria, were recorded (Table 3). The concentration of the bacterial suspension used in the assay was confirmed by viable counts on blood agar plates.
# S. aureus (#1800; CCUG, Gothenburg, Sweden) cultured on blood-agar plates [Columbia agar (Oxoid, Basingstoke, UK) supplemented with 5% defibrinated horse blood (National Veterinary Institute (SVA), Uppsala, Sweden)] were transferred to brain heart infusion broth (3.7% BHI; Difco, BD Diagnostics, Franklin Lakes, N.J., USA) and incubated in a shaker at 250 rpm+37° C. over night. The culture was thereafter be diluted 1:10 in fresh BHI broth and incubated for additional two hours to reach log-phase growth. The bacteria were pelleted and suspended in 1% BHI medium (BHI broth diluted 100 times in ultra-pure water) to a final concentration of 10^7 bacteria/ml as estimated by measuring optical density at 600 nm. Peptides were serially diluted by two-fold steps from 400 μM to 0.78 μM in either 1% BHI medium or in 50% heat inactivated simulated wound fluid [SWF, containing 1 part 0.1% peptone (Oxoid, Basingstoke, UK) in saline and 1 part fetal bovine serum, diluted 2 times in ultra-pure water].
# The peptides (100 μl) were thereafter incubated with bacteria (5 μl á 10^7 bact./ml) for 2 hours at +37° C. Drops (5 μl) of the suspension were placed on blood agar plates. The blood agar plates were incubated over night at +37° C. The MMC99 values, i.e. the lowest peptide concentration needed to achieve a 99% reduction of viable bacteria were recorded (Table 6). The concentration of the bacterial suspension used in the assay was confirmed by viable counts on blood agar plates.
# (§1) The antimicrobial effects of the peptide 265 (SEQ ID NO: 27) was analysed by MMC99 (minimal microbicidal concentration) assay against S. aureus (CCUG 1800), MRSA (CCUG 41879), P. aeruginosa (ATCC 15442), E. coli (CCUG 31246), S. pyogenes (CCUG 4207), P. acnes (CCUG 1794T), S. epidermidis (ATCC12228), K. pneumoniae (ATCC 13883), A. baumannii (ATCC 19606), and C. albicans (ATCC 64549). The peptides were purchased from Biopeptide Company (San Diego, Calif., USA) and Bachem AG (Bubendorf, Switzerland) and results are presented in Table 8A and 8B respectively.
# (§2) Peptide was serially diluted in two different assay medium, 1% BHI medium (brain-heart infusion medium) or 50% heat inactivated simulated wound fluid (SWF), and thereafter incubated with the microorganisms for 2 hours. Drops of the suspension were placed on blood agar plates. The MMC99 values, i.e. the lowest peptide concentration needed to achieve a 99% reduction of viable microorganisms, were recorded. As presented in Table 8, the peptide has the ability to kill microorganisms frequently appearing in infections.
# [2] = system: MRSA (CCUG 41879); experiment: MMC99 assay, MRSA; format: cell-based, methicillin resistant S. aureus; details: Table 8A
# Protocol: as §1, §2
# [3] = system: P. aeruginosa (ATCC 15442); experiment: MMC99 assay, P. aeruginosa; format: cell-based; details: Table 8A
# Protocol: as §1, §2
# [4] = system: E. coli (CCUG 31246); experiment: MMC99 assay, E. coli; format: cell-based; details: Table 8A
# Protocol: as §1, §2
# [5] = system: P. acnes (CCUG 1794T); experiment: MMC99 assay, P. acnes; format: cell-based; details: Table 8A
# Protocol: as §1, §2
# [6] = system: S. pyogenes (CCUG 4207); experiment: MMC99 assay, S. pyogenes; format: cell-based; details: Table 8A
# Protocol: as §1, §2
# [7] = system: S. epidermidis (ATCC12228); experiment: MMC99 assay, S. epidermidis; format: cell-based; details: Table 8B
# Protocol: as §1, §2
# [8] = system: K. pneumoniae (ATCC 13883); experiment: MMC99 assay, K. pneumoniae; format: cell-based; details: Table 8B
# Protocol: as §1, §2
# [9] = system: A. baumannii (ATCC 19606); experiment: MMC99 assay, A. baumannii; format: cell-based; details: Table 8B
# Protocol: as §1, §2
# [10] = system: C. albicans (ATCC 64549); experiment: MMC99 assay, C. albicans; format: cell-based; details: Table 8B
# Protocol: as §1, §2
# [11] = system: MRSA (CCUG 41879); experiment: In vivo antimicrobial effect in excision wound model in rats; design: species or system rat; details: peptide in H2O 0.1, 0.5 and 2 mg/ml, single administration, two hours, vs control (H2O)
# Text: FIG. 4. Dose-response effect of peptide 265 (A) on bacterial colonization of infected excision wounds in rats. […] Results are presented as relative bacterial survival (%) compared to control group ±SEM (n=15 wounds). Statistical significance was estimated by Student's t test. *=p<0.05, **=p<0.01, ***=p<0.001.
# The in vivo antimicrobial effects of the peptide 265 (SEQ ID NO: 27) was investigated in an excision wound model in rats. The wounds were inoculated with methicillin resistant S. aureus (MRSA) for two hours, followed by a single administration of peptide or control (H2O) for two hours before termination and harvest of the bacteria.
# [12] = system: S. aureus; experiment: Antimicrobial effect in infected wounds, ex vivo model on pig skin; details: S. aureus in PBS/serum (50/50); peptide in H2O 0.1, 0.5 and 2 mg/ml, single administration, four hours; vs placebo (H2O)
# Text: FIG. 5. Dose response effect of peptide 265 (A), on bacterial colonization of infected wounds in pig skin. […] Results are presented as relative bacterial survival (%) compared to control group ±SEM (n=10 wounds). Statistical significance was estimated by Student's t test. *=p<0.05, **=p<0.01, ***=p<0.001.
# The antimicrobial effects of the peptide 265 (SEQ ID NO: 27) was investigated in an ex vivo model on pig skin. The wounds were inoculated with S. aureus in the presence of PBS/Serum 50/50. Two hours after inoculation the wounds were treated with a single administration of the peptide or placebo (H2O). Four hours after the treatment bacteria were harvested and viable counts of each wound were determined.
# [13] = system: TNF-α production in LPS stimulated THP-1 cells; experiment: Inhibition of TNF-α production in LPS stimulated THP-1 cells (ELISA); details: screen 2, mean relative secretion
sequence,measurement,setting,value
FRQWKRWMRKVFHSWRRW [Peptide 265],MMC99 S. aureus 1% BHI,"[1]; 1% BHI, Table 8A",4 µg/mL
same,MMC99 S. aureus 50% SWF,"[1]; 50% SWF, Table 8A",8 µg/mL
same,MMC99 μM in 1% BHI medium,"[1]; screen 2, 1% BHI medium, 2 hours",6.25 µM
same,MMC99 μM in 50% SWF,"[1]; screen 2, 50% heat inactivated simulated wound fluid, 2 hours",12.5 µM
same,MMC99 MRSA 1% BHI,[2]; 1% BHI,6 µg/mL
same,MMC99 MRSA 50% SWF,[2]; 50% SWF,50 µg/mL
same,MMC99 P. aeruginosa 1% BHI,[3]; 1% BHI,4 µg/mL
same,MMC99 P. aeruginosa 50% SWF,[3]; 50% SWF,134 µg/mL
same,MMC99 E. coli 1% BHI,[4]; 1% BHI,5 µg/mL
same,MMC99 E. coli 50% SWF,[4]; 50% SWF,67 µg/mL
same,MMC99 P. acnes 1% BHI,[5]; 1% BHI,<3 µg/mL
same,MMC99 P. acnes 50% SWF,[5]; 50% SWF,50 µg/mL
same,MMC99 S. pyogenes 1% BHI,[6]; 1% BHI,<3 µg/mL
same,MMC99 S. pyogenes 50% SWF,[6]; 50% SWF,25 µg/mL
same,MMC99 S. epidermidis 1% BHI,[7]; 1% BHI,<2 µg/mL
same,MMC99 S. epidermidis 50% SWF,[7]; 50% SWF,6 µg/mL
same,MMC99 K. pneumoniae 1% BHI,[8]; 1% BHI,3 µg/mL
same,MMC99 K. pneumoniae 50% SWF,[8]; 50% SWF,25 µg/mL
same,MMC99 A. baumannii 1% BHI,[9]; 1% BHI,<2 µg/mL
same,MMC99 A. baumannii 50% SWF,[9]; 50% SWF,12 µg/mL
same,MMC99 C. albicans 1% BHI,[10]; 1% BHI,6 µg/mL
same,MMC99 C. albicans 50% SWF,[10]; 50% SWF,100 µg/mL
same,bacterial colonization of infected excision wounds in rats,[11],significant reduction in bacterial counts in a dose response fashion; also recorded: pronounced antimicrobial effect
same,bacterial colonization of infected wounds in pig skin,[12],significant reduction in bacterial counts with a dose response relation; also recorded: highly effective
same,TNF-α at 40 μM peptide,"[13]; stimulated level without peptide = 100%, basal = 0%, 40 μM peptide",13.8%
same,TNF-α at 4 μM peptide,[13]; 4 μM peptide,87.0%
same,TNF-α at 10 μM peptide,[13]; 10 μM peptide,31.1%
